Data as given in patent publication US20130115174A1, “TRANSMUCOSAL COMPOSITION CONTAINING ANTHOCYANINS FOR ALLEVIATING A VISUAL DISCOMFORT” (priority 2010, published 2013).
Read-outs that look alike come from different tables or passages of the source.

Columns and labels:
[1] = set-up: species or system Rats (OFA, Sprague-Dawlay); settings: rat, in vivo
Description: The stick gum administered to Rats contains 5 mg of vegetal extract titrated at 25% of anthocyanosides (i.e. 1.250 μg of anthocyanosides).
The Sprague Dawley rat (10 Males) used extensively in medical research weighing 450-520 g were received and placed separately in cage in room temperature controlled (22° C.). […] Rats were maintained in dark periode condition and fed a diet (755 g/kg wheat starch, 150 g/kg casein, 50 g/kg peanut oil, 35 g/kg AlN-93M mineral mixture, 10 g/kg AlN-76A vitamin mixture) during 2 weeks (Felgines, C. et al. J. Nutr 2002).
The stick gum was deposited at the buccal mucosa area.
Peripheral blood was collected 1 hour post-administration, centrifuged and plasma was acidified through formic acid addition. After acidification, plasma samples were conserved at −80° C. and analyzed by LC-MS/MS (Liquid Chromatography—Mass Spectrometer/Mass Spectrometer).
In parallel, epithelium and conjunctive tissues were collected 45 minutes post-administration, placed in formic acid and eventually conserved at −80° C. Before LC-MS/MS analyze, tissues were washed in PBS (phosphate buffered saline) and homogenized on ice. Protein concentrations were determined by Lowry method. To facilitate tissues preparation, samples were homogenized and treated with 2.5% trypsin and 2% collagenase during 1.5 h at 37° C., and then acidified with formic acid. […]

[2] = Digestive versus sublingual absorption, plasmatic level 1 hour after administration; type: in vivo, Rats; settings: for concentration at 1 h: rat, plasma, read-out: Plasmatic lutein concentration
Description: Taurin and Lutein plasmatic level are evaluated using HPLC process as described Lallemand F. et al, 2004 and Shanmugam S, et al, 2011, respectively.

Compound: Anthocyanin
- absorption in the tissues and in the plasma [1]: significantly absorbed

Compound: CC1=C[C@H](O)CC(C)(C)[C@H]1/C=C/C(C)=C/C=C/C(C)=C/C=C/C=C(C)/C=C/C=C(C)/C=C/C1=C(C)C[C@@H](O)CC1(C)C [lutein, Lutein]
- absorption, lingual way as compared to the digestive way ([2]; Example 5, rats): more effective
- concentration at 1 h ([2]; oral, Digestive, 6 mg/kg): 34 ng/mL
- concentration at 1 h ([2]; oral, Digestive, 12 mg/kg): 32 ng/mL
- concentration at 1 h ([2]; other: sublingual, Sublingual, 6 mg/kg): 120 ng/mL
- concentration at 1 h ([2]; other: sublingual, Sublingual, 12 mg/kg): 160 ng/mL
